pIC50: −log10 of the molar value.
Assays:
CDK6/Cyclin D3 = CDK6/Cyclin D3 (Homo sapiens (Human), UniProt Q00534); test: TR-FRET kinase inhibition assay, CDK6/Cyclin D3; format: biochemical; conditions: 1 mM ATP, 0.15 μM Rb (Ser780)-biotin substrate, read-out: CDK6D3 IC50
In short: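 Kinase preincubated 60 min at room temperature with 0–10 μM compound; reaction started with 1 mM ATP and 0.15 μM Rb (Ser780)-biotin, run 120 min at room temperature in HEPES pH 7.0, 50 mM MgCl2. pRb detected by TR-FRET (665/620 nm ratio); IC50 from four-parameter logistic fit.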

CDK4/Cyclin D1 = CDK4/Cyclin D1 (Homo sapiens (Human), UniProt P11802); test: TR-FRET kinase inhibition assay, CDK4/Cyclin D1; format: biochemical; conditions: 1 mM ATP, 0.15 μM Rb (Ser780)-biotin substrate, read-out: CDK4D1 IC50
Sequence of CDK4/Cyclin D1 (P11802 whole entry): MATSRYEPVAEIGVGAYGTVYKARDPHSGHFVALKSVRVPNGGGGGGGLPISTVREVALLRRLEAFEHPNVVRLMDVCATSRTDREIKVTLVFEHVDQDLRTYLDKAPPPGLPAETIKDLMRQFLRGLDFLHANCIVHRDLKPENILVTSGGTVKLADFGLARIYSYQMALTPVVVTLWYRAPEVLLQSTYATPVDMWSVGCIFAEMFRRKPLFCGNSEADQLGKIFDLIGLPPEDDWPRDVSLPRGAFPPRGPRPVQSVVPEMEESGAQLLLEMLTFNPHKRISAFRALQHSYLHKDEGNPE
Sequence of CDK4/Cyclin D1 (P24385 whole entry partner): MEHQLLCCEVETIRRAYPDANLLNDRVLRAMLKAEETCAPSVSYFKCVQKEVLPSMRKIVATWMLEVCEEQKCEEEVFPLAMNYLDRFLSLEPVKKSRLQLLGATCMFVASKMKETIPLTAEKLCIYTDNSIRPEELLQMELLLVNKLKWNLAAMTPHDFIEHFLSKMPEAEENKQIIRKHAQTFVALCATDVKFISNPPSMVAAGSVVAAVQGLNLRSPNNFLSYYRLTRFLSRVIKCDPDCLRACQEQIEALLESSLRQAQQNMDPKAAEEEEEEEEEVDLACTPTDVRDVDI
In short: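 Kinase was preincubated with compound for 60 min at room temperature, then reacted with ATP and Rb (Ser780)-biotin substrate for 120 min. IC50 came from a four-parameter logistic fit.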

Sequence of CDK6/Cyclin D3 (Q00534 whole entry): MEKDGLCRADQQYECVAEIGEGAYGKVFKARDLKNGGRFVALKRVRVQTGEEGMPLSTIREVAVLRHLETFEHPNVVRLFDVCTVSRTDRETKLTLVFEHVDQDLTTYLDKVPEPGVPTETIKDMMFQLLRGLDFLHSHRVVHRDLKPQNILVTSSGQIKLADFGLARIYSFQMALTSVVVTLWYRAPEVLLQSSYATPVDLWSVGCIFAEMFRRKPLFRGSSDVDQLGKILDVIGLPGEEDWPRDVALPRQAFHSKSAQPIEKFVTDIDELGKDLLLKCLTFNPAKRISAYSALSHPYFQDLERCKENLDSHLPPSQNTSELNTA
Sequence of CDK6/Cyclin D3 (P30281 whole entry partner): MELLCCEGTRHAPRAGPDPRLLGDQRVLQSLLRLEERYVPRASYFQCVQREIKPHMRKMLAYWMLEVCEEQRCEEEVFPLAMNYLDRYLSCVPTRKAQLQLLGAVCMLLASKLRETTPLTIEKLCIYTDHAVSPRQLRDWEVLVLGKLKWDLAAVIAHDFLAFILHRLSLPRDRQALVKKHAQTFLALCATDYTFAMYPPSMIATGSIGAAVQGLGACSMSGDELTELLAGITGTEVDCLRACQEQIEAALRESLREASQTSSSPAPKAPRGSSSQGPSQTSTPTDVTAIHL

Structure (SMILES): CNC(=O)c1cc(=O)c2ccc(-c3nc(N[C@@H]4CCOC[C@H]4O)ncc3Cl)cc2n1C(C)C [Example 14, 7-(5-chloro-2-(((3S,4R)-3-hydroxytetrahydro-2H-pyran-4-yl)amino)pyrimidin-4-yl)-1-isopropyl-N-methyl-4-oxo-1,4-dihydroquinoline-2-carboxamide]
- pIC50 (CDK6/Cyclin D3): 6.15
- pIC50 (CDK4/Cyclin D1): 7.38

Structure (SMILES): Cc1cc(=O)c2ccc(-c3nc(N[C@@H]4CCOC[C@H]4O)ncc3F)cc2n1C(C)C [Example 6, 7-(5-fluoro-2-(((3S,4R)-3-hydroxytetrahydro-2H-pyran-4-yl)amino)pyrimidin-4-yl)-1-isopropyl-2-methylquinolin-4(1H)-one]
- pIC50 (CDK6/Cyclin D3): 6.46
- pIC50 (CDK4/Cyclin D1): 7.82

Structure (SMILES): Cc1c(C2CC2)c(=O)c2ccc(-c3nc(N[C@@H]4CCOC[C@H]4O)ncc3F)cc2n1C(C)C [Example 40, 3-cyclopropyl-7-(5-fluoro-2-(((3S,4R)-3-hydroxytetrahydro-2H-pyran-4-yl)amino)pyrimidin-4-yl)-1-isopropyl-2-methylquinolin-4(1H)-one]
- pIC50 (CDK6/Cyclin D3): 6.83
- pIC50 (CDK4/Cyclin D1): 8.06

Structure (SMILES): Cc1c(CN2CCCC3(CCNC3=O)C2)n(C(C)C)c2cc(-c3nc(N[C@@H]4CCOC[C@H]4O)ncc3F)ccc2c1=O (stereo partly drawn) [Example 124, 7-((7-(5-fluoro-2-(((3S,4R)-3-hydroxytetrahydro-2H-pyran-4-yl)amino)pyrimidin-4-yl)-1-isopropyl-3-methyl-4-oxo-1,4-dihydroquinolin-2-yl)methyl)-2,7-diazaspiro[4.5]decan-1-one]
- pIC50 (CDK6/Cyclin D3): 6.64
- pIC50 (CDK4/Cyclin D1): 8.30

Structure (SMILES): CC(C)n1c(CN2CC(O)C2)cc(=O)c2ccc(-c3nc(N[C@@H]4CCOC[C@H]4O)ncc3F)cc21 [Example 30, 7-(5-fluoro-2-(((3S,4R)-3-hydroxytetrahydro-2H-pyran-4-yl)amino)pyrimidin-4-yl)-2-((3-hydroxyazetidin-1-yl)methyl)-1-isopropylquinolin-4(1H)-one]
- pIC50 (CDK6/Cyclin D3): 6.11
- pIC50 (CDK4/Cyclin D1): 7.52

Structure (SMILES): Cc1c(CN2CC[C@](C)(O)C2)n(C(C)C)c2cc(-c3nc(N[C@@H]4CCOC[C@H]4O)ncc3F)ccc2c1=O [Example 125, 7-(5-fluoro-2-(((3S,4R)-3-hydroxytetrahydro-2H-pyran-4-yl)amino)pyrimidin-4-yl)-2-(((S)-3-hydroxy-3-methylpyrrolidin-1-yl)methyl)-1-isopopyl-3-methylquinolin-4(1H)-one]
- pIC50 (CDK6/Cyclin D3): 6.44
- pIC50 (CDK4/Cyclin D1): 7.82

Structure (SMILES): CC(C)n1c(CN2CC[C@](C)(O)C2)cc(=O)c2ccc(-c3nc(N[C@@H]4CCOC[C@H]4O)ncc3F)cc21 [Example 61, 7-(5-fluoro-2-(((3S,4R)-3-hydroxytetrahydro-2H-pyran-4-yl)amino)pyrimidin-4-yl)-2-(((S)-3-hydroxy-3-methylpyrrolidin-1-yl)methyl)-1-isopropylquinolin-4(1H)-one]
- pIC50 (CDK6/Cyclin D3): 5.93
- pIC50 (CDK4/Cyclin D1): 7.52

Structure (SMILES): Cc1cc(=O)c2ccc(-c3nc(N[C@@H]4CCOC[C@H]4O)ncc3F)cc2n1C1CCCC1 [Example 10, 1-cyclopentyl-7-(5-fluoro-2-(((3S,4R)-3-hydroxytetrahydro-2H-pyran-4-yl)amino)pyrimidin-4-yl)-2-methylquinolin-4(1H)-one]
- pIC50 (CDK6/Cyclin D3): 5.84
- pIC50 (CDK4/Cyclin D1): 7.40

Structure (SMILES): CC(C)n1c(CN2CC[C@@H](F)C2)cc(=O)c2cc(F)c(-c3nc(N[C@@H]4CCOC[C@H]4O)ncc3F)cc21 [Example 114, 6-fluoro-7-(5-fluoro-2-(((3S,4R)-3-hydroxytetrahydro-2H-pyran-4-yl)amino)pyrimidin-4-yl)-2-(((R)-3-fluoropyrrolidin-1-yl)methyl)-1-isopropylquinolin-4(1H)-one]
- pIC50 (CDK6/Cyclin D3): 6.19
- pIC50 (CDK4/Cyclin D1): 7.40

Structure (SMILES): CC(C)n1c(CN2CCO[C@@H](C)C2)cc(=O)c2ccc(-c3nc(N[C@@H]4CCOC[C@H]4O)ncc3F)cc21 [Example 62, 7-(5-fluoro-2-(((3S,4R)-3-hydroxytetrahydro-2H-pyran-4-yl)amino)pyrimidin-4-yl)-1-isopropyl-2-(((S)-2-methylmorpholino)methyl)quinolin-4(1H)-one]
- pIC50 (CDK6/Cyclin D3): 6.59
- pIC50 (CDK4/Cyclin D1): 7.77

Structure (SMILES): CC(C)n1c(CNc2ccc(F)cc2)cc(=O)c2ccc(-c3nc(N[C@@H]4CCOC[C@H]4O)ncc3F)cc21 [Example 96, 7-(5-fluoro-2-(((3S,4R)-3-hydroxytetrahydro-2H-pyran-4-yl)amino)pyrimidin-4-yl)-2-(((4-fluorophenyl)amino)methyl)-1-isopropylquinolin-4(1H)-one]
- pIC50 (CDK6/Cyclin D3): 6.56
- pIC50 (CDK4/Cyclin D1): 7.68

Structure (SMILES): CC(C)n1c(CN2CCOCC2)cc(=O)c2ccc(-c3nc(N[C@@H]4CCOC[C@H]4O)ncc3F)cc21 [Example 25, 7-(5-fluoro-2-(((3S,4R)-3-hydroxytetrahydro-2H-pyran-4-yl)amino)pyrimidin-4-yl)-1-isopropyl-2-(morpholinomethyl)quinolin-4(1H)-one]
- pIC50 (CDK6/Cyclin D3): 6.86
- pIC50 (CDK4/Cyclin D1): 8.09

Structure (SMILES): Cc1c(CN2CCCC(F)(F)C2)n(C(C)C)c2cc(-c3nc(N[C@@H]4CCOC[C@H]4O)ncc3F)ccc2c1=O [Example 116, 2-((3,3-difluoropiperidin-1-yl)methyl)-7-(5-fluoro-2-(((3S,4R)-3-hydroxytetrahydro-2H-pyran-4-yl)amino)pyrimidin-4-yl)-1-isopropyl-3-methylquinolin-4(1H)-one]
- pIC50 (CDK6/Cyclin D3): 6.76
- pIC50 (CDK4/Cyclin D1): 8.41

Structure (SMILES): CC(C)n1c(CN2CCCOCC2)cc(=O)c2ccc(-c3nc(N[C@@H]4CCOC[C@H]4O)ncc3F)cc21 [Example 79, 2-((1,4-oxazepan-4-yl)methyl)-7-(5-fluoro-2-(((3S,4R)-3-hydroxytetrahydro-2H-pyran-4-yl)amino)pyrimidin-4-yl)-1-isopropylquinolin-4(1H)-one]
- pIC50 (CDK6/Cyclin D3): 6.07
- pIC50 (CDK4/Cyclin D1): 7.47

Structure (SMILES): Cc1c(CN[C@H]2CCOC2)n(C(C)C)c2cc(-c3nc(N[C@@H]4CCOC[C@H]4O)ncc3F)ccc2c1=O [Example 113, 7-(5-fluoro-2-(((3S,4R)-3-hydroxytetrahydro-2H-pyran-4-yl)amino)pyrimidin-4-yl)-1-isopropyl-3-methyl-2-((((S)-tetrahydrofuran-3-yl)amino)methyl)quinolin-4(1H)-one]
- pIC50 (CDK6/Cyclin D3): 6.18
- pIC50 (CDK4/Cyclin D1): 7.77

Structure (SMILES): Cc1c(CN2CC[C@@H](F)C2)n(C(C)C)c2cc(-c3nc(N[C@@H]4CCOC[C@H]4O)ncc3F)ccc2c1=O [Example 92, 7-(5-fluoro-2-(((3S,4R)-3-hydroxytetrahydro-2H-pyran-4-yl)amino)pyrimidin-4-yl)-2-(((R)-3-fluoropyrrolidin-1-yl)methyl)-1-isopropyl-3-methylquinolin-4(1H)-one]
- pIC50 (CDK6/Cyclin D3): 6.88
- pIC50 (CDK4/Cyclin D1): 8.39

Structure (SMILES): CC(C)n1c(CN)cc(=O)c2ccc(-c3nc(N[C@@H]4CCOC[C@H]4O)ncc3F)cc21 [Example 35]
- pIC50 (CDK6/Cyclin D3): 6.56
- pIC50 (CDK4/Cyclin D1): 8.16

Structure (SMILES): CC(C)n1c(CN2CCC(F)(F)CC2)cc(=O)c2ccc(-c3nc(N[C@@H]4CCOC[C@H]4O)ncc3F)cc21 [Example 54, 2-((4,4-difluoropiperidin-1-yl)methyl)-7-(5-fluoro-2-(((3S,4R)-3-hydroxytetrahydro-2H-pyran-4-yl)<amino)pyrimidin-4-yl)-1-isopropylquinolin-4(1H)-one]
- pIC50 (CDK6/Cyclin D3): 6.59
- pIC50 (CDK4/Cyclin D1): 7.89

Structure (SMILES): CC(C)NCc1cc(=O)c2ccc(-c3nc(N[C@@H]4CCOC[C@H]4O)ncc3F)cc2n1C(C)C [Example 47, 7-(5-fluoro-2-(((3S,4R)-3-hydroxytetrahydro-2H-pyran-4-yl)amino)pyrimidin-4-yl)-1-isopropyl-2-((isopropylamino)methyl)quinolin-4(1H)-one]
- pIC50 (CDK6/Cyclin D3): 6.18
- pIC50 (CDK4/Cyclin D1): 7.85

Structure (SMILES): CC(C)n1c(CN2CC[C@H](F)[C@@H](O)C2)cc(=O)c2ccc(-c3nc(N[C@@H]4CCOC[C@H]4O)ncc3F)cc21 [Example 85, 7-(5-fluoro-2-(((3S,4R)-3-hydroxytetrahydro-2H-pyran-4-yl)amino)pyrimidin-4-yl)-2-(((3S,4S)-4-fluoro-3-hydroxypiperidin-1-yl)methyl)-1-isopropylquinolin-4(1H)-one]
- pIC50 (CDK6/Cyclin D3): 6.31
- pIC50 (CDK4/Cyclin D1): 7.72

Structure (SMILES): COc1ccc(NCc2cc(=O)c3ccc(-c4nc(N[C@@H]5CCOC[C@H]5O)ncc4F)cc3n2C(C)C)cc1 [Example 101, 7-(5-fluoro-2-(((3S,4R)-3-hydroxytetrahydro-2H-pyran-4-yl)amino)pyrimidin-4-yl)-1-isopropyl-2-(((4-methoxyphenyl)amino)methyl)quinolin-4(1H)-one]
- pIC50 (CDK6/Cyclin D3): 6.51
- pIC50 (CDK4/Cyclin D1): 7.59

Structure (SMILES): CC(C)n1c(CN2CCOC[C@@H]2C)cc(=O)c2ccc(-c3nc(N[C@@H]4CCOC[C@H]4O)ncc3F)cc21 [Example 53, 7-(5-fluoro-2-(((3S,4R)-3-hydroxytetrahydro-2H-pyran-4-yl)amino)pyrimidin-4-yl)-1-isopropyl-2-(((S)-3-methylmorpholino)methyl)quinolin-4(1H)-one]
- pIC50 (CDK6/Cyclin D3): 6.78
- pIC50 (CDK4/Cyclin D1): 7.96

Structure (SMILES): CC(C)n1c(CN[C@H]2CCCOC2)cc(=O)c2ccc(-c3nc(N[C@@H]4CCOC[C@H]4O)ncc3F)cc21 [Example 60, 7-(5-fluoro-2-(((3S,4R)-3-hydroxytetrahydro-2H-pyran-4-yl)amino)pyrimidin-4-yl)-1-isopropyl-2-((((S)-tetrahydro-2H-pyran-3-yl)amino)methyl)quinolin-4(1H)-one]
- pIC50 (CDK6/Cyclin D3): 6.20
- pIC50 (CDK4/Cyclin D1): 7.66

Structure (SMILES): CC(C)n1c(CN[C@@H]2CCOC2)cc(=O)c2ccc(-c3nc(N[C@@H]4CCOC[C@H]4O)ncc3F)cc21 [Example 65, 7-(5-fluoro-2-(((3S,4R)-3-hydroxytetrahydro-2H-pyran-4-yl)amino)pyrimidin-4-yl)-1-isopropyl-2-((((R)-tetrahydrofuran-3-yl)amino)methyl)quinolin-4(1H)-one]
- pIC50 (CDK6/Cyclin D3): 6.13
- pIC50 (CDK4/Cyclin D1): 7.51
